Measurements published in patent US20160281095A1, “Alkynyl-Derivatized Cap Analogs, Preparation and Uses Thereof” (LIFE TECHNOLOGIES CORPORATION, priority 2011, published 2016).

Columns and labels:
HeLa cells = assay: Translation efficiency: luciferase activity after transfection of capped luciferase mRNA poly(A); format: cell-based; settings: luciferase mRNA poly(A) transfected into HeLa cells, 16 h, versus m^7GpppG-capped mRNA
Procedure: Alkynyl-derivatized capped mRNAs were produced in vitro for use in translation assays. […] In order to hydrolyze the remaining plasmid DNA, 1 μL of TURBO DNase was added to the reaction mixture and further incubated at 37° C. for 15 min. Purification of transcription reactions was done by using the MEGAclear™ kit (Life Technologies Corp) as per manufacturer's protocol. The in vitro transcription results in a mixture of 5′analog-capped and uncapped mRNAs.
To determine the translational efficiency, the luciferase mRNA poly(A) product generated from the transcription reaction using a standard cap and the luciferase mRNA poly(A) product generated as described above using the alkyne-derivatized cap 7 were transfected separately into HeLa cells.
The HeLa cells (60,000/well in 24 well-plates) were seeded at least 12 h before transfection in growth medium without antibiotics. Capped RNA was prepared by mixing 600 ng of RNA, 2.5 μL of TFX-20™ (Promega), and 300 μL of serum-free DMEM in polystyrene tubes and incubated for 15 min at room temperature. […] The plate was mixed carefully to disrupt the cells and 10 μL of cell lysates from each transfection reactions were mixed with 100 μL of luciferase substrate (Promega) and measured immediately on a POLARstar OPTIMA Luminometer (BMG Labtech) in 96-well plates. […]

T7 RNA polymerase = T7 RNA polymerase (Escherichia phage T7, UniProt P00573); settings: T7 RNA polymerase transcription, pTri β actin template, cap analog 1.6 mM, GTP 0.4 mM, 37° C. 2 h, 20% dPAGE gel
Sequence of T7 RNA polymerase (P00573 whole entry): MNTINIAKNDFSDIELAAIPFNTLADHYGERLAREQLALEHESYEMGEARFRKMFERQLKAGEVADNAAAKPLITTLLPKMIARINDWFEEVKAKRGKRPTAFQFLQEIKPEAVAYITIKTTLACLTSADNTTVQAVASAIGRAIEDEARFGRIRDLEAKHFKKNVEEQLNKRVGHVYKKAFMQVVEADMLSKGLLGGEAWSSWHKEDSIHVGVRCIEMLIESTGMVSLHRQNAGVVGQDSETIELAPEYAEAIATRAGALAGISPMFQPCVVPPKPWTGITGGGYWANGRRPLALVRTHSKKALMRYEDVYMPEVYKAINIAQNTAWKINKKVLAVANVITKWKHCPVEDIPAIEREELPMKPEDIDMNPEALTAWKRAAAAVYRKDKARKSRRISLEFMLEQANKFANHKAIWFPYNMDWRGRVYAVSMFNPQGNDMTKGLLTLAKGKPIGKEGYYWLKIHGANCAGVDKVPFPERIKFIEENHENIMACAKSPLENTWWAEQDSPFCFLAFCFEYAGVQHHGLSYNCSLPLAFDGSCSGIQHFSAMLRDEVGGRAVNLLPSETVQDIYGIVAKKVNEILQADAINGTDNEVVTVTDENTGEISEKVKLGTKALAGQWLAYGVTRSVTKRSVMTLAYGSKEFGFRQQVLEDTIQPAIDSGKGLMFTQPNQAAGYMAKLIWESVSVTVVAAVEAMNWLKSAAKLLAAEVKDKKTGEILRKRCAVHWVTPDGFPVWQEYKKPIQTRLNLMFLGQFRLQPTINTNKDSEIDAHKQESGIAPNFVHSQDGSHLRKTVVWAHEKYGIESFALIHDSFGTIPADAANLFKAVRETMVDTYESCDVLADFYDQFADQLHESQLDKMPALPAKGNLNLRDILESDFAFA
Procedure: The gel shift assay was performed by using a pTri β actin template and the IVT reaction used linearized AmbLuc poly(A) DNA template and a [sequence] kit (Life Technologies Corporation). Radiation in the gel bands of interest was quantified by a phosphorimager (GE Healthcare).
To analyze capping efficiency during transcription a Gel Shift Assay was used. The Gel shift assay was performed using the MAXISCRIPT kit (Life Technologies Corporation) by following the manufacturer's protocol. A typical 20 μL T7 RNA polymerase transcription reaction contained the following reagents at the final concentrations indicated: linearized pTri β actin vector template, 0.5 μg; ATP, 2 mM; GTP, 0.4 mM; compound standard cap analog and alkynyl-derivatized cap analog 7, 1.6 mM each in separate reactions; 10× reaction buffer, 4 μl; T7 RNA polymerase, 50 units/μL; (α-^32P) ATP, 800 (Ci/mmol); and DEPC water. The control reaction was a normal in vitro transcription reaction, in which no cap analog was added. […] Radiation in the gel bands of interest was quantified by a phosphoroimager (GE Healthcare).
Due to the omission of CTP and UTP, only the 5′ end was transcribed by T7 RNA polymerase, producing a transcript of six nucleotides in length. The resulting transcription products were analyzed by 20% denaturing polyacrylamide/8 M urea gel.

SMILES	translational efficiency (luciferase signal) relative to mRNA capped with the standard cap analog (HeLa cells)	translational efficiency (luciferase signal) relative to mRNA capped with the standard cap analog (HeLa cells; listed as 3′-O-propargyl substituted cap analog) [fold]	capping efficiency (T7 RNA polymerase) [%]
C#CCO[C@H]1[C@@H](O)[C@H](n2c[n+](C)c3c(=O)[nH]c(N)nc32)O[C@@H]1COP(=O)(O)OP(=O)(O)OP(=O)(O)OC[C@H]1O[C@@H](n2cnc3c(=O)[nH]c(N)nc32)[C@H](O)[C@@H]1O [compound 7, m^7,3′-O-propargylG[5′]ppp[5′]G]	up to 3 fold	3.1	60
Cn1c[n+]([C@@H]2O[C@H](COP(=O)(O)OP(=O)(O)OP(=O)(O)OC[C@H]3O[C@@H](n4cnc5c(=O)[nH]c(N)nc54)[C@H](O)[C@@H]3O)[C@@H](O)[C@H]2O)c2nc(N)[nH]c(=O)c21 [standard cap, m^7G(5′)ppp(5′)G, reference compound]			73
